Assay results as given in patent US10752588B2 (The Broad Institute, Inc., priority 2014, dated 2020).

Legend:
human D2R/β-arrestin [1] = target: T1, human D2R/β-arrestin (Homo sapiens (Human), UniProt P14416); test: cell-based; conditions: β-arrestin Antagonist, CHO-K1 cell line expressing human D2R/β-arrestin; quinpirole used as agonist
Experimental: (§2) The detection reagents are then added, and the read-out is detected.
(§3) Cells were prepared for assays by growing cultures for up to 2 weeks (from about 6-20 passages). A vial of frozen cells was thawed in a water bath held at 37° C. The cells were then transferred into a 50 ml tube with 10 ml growth media. The vial was rinsed with growth media and the contents transferred to the 50 ml tube. The 50 ml tube was centrifuged at 1200 rpm for 5 minutes at room temperature. […] When the cells reached about 90% confluence (approximately 3 days between passages), the cells were passaged and used for either the agonist or antagonist assays as described below.
The cells were prepared for β-arrestin assays as described above. The assays were performed using a PathHunter® β-Arrestin Detecting Kit (DiscoveRX). The cells were grown on 225 mm dishes, then washed once with 1×PBS (Cellgro), followed by digestion with 2.5 ml 1× Detachment reagent (DRX 92-0009) for approximately 2 minutes.

human D2R/β-arrestin [2] = target: T1, human D2R/β-arrestin; test: cell-based; conditions: cAMP Antagonist, CHO-K1 cell line expressing human D2R/β-arrestin; quinpirole used as agonist
Experimental: as §2, §3
The cells were prepared for Gi/cAMP assays as described above. The assays were performed using a PE Lance Ultra cAMP kit (TRF0263). The cells were grown on 225 mm dishes, then washed once with 1×PBS (Cellgro) before digestion with 2.5 ml 1× Detachment reagent (DRX 92-0009) for about 2 minutes. PBS (20 ml) was then added to the plate, and the cells were transferred to a 50 ml centrifuge tube, and centrifuged at room temperature using BD Dynac III, at 1200 rpm for 5 minutes. […] The plates were then incubated at room temperature for about 30 minutes before addition of Eu-cAMP tracer solution (100, PerkinElmer) and then ULight-anti-cAMP solution (100) to each well.

human D2R/β-arrestin [3] = target: T1, human D2R/β-arrestin; test: Gi/cAMP agonist assay (Lance Ultra cAMP, Forskolin); format: cell-based; conditions: CHO-K1 cell line expressing human D2R/β-arrestin
Experimental: (§1) The assays can be performed using proper detection reagents either prepared using routine methods known in the art or commercially available (e.g., PE Lance Ultra cAMP kit (TRF0263)). Cells are grown to the necessary confluence and then detached. The cells are then centrifuged, washed, resuspended, and seeded into a container (e.g., 384-well plate). The cells are incubated (e.g., at 37° C., 5% CO2) for the appropriate period of time (e.g., 24 hours), before various compounds (e.g., a compound of the invention or a control compound) are added to the cells. Afterwards, cAMP inducing agents (e.g., Forskolin) are added to and incubated with the cells before detection reagents (e.g., a cAMP antibody, such as ULight-anti-cAMP solution) are added to the cells. Read-out (e.g., luminescence, or fluorescence) is detected using standard equipment.
Compounds were pin-transferred (100 nL) to the cells, and incubated for 10 min. at 37° C. […] Eu-cAMP tracer solution (100, PerkinElmer, […] in 17.64 ml kit buffer) and ULight-anti-cAMP solution (100, 120 μL antibody in 17.88 ml kit buffer) was then added to each well.

human D2R/β-arrestin [4] = target: T1, human D2R/β-arrestin; test: β-Arrestin agonist assay (PathHunter); format: cell-based; conditions: CHO-K1 cell line expressing human D2R/β-arrestin
Experimental: as §1, with “PathHunter® β-Arrestin Detecting Kit (DiscoveRX)).” for “PE Lance Ultra cAMP kit (TRF0263)).”, “After incubation of the cells” for “Afterwards, cAMP inducing agents (e.g., Forskolin) are added to and incubated”, “compounds,” for “cells before”, “buffer containing Emerald II: Galactor-Star” for “cAMP antibody, such”, “provided DiscoveRX)” for “ULight-anti-cAMP solution)”, “The read-out” for “Read-out”
The detection reagent (9.6 μL, Buffer:Emerald II:Galactor-Star in a 19:5:1 ratio, i.e., 14.06 mL:3.7 mL:0.74 mL=18.5 mL) was then added to the agonist plates.

T1 sequence (P14416 whole entry): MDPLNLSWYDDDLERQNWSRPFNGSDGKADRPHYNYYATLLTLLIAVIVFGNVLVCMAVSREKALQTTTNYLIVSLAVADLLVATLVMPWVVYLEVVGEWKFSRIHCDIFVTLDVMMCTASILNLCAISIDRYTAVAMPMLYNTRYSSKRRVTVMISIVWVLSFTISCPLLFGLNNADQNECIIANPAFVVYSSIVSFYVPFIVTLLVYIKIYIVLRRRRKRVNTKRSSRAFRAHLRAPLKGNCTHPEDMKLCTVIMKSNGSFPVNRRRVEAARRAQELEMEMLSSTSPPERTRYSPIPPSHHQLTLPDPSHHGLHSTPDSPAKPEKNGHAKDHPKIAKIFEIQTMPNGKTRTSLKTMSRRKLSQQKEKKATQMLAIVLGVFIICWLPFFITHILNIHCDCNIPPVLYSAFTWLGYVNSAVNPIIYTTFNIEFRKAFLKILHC

Row | IC50 (human D2R/β-arrestin [1]) | IC50 (human D2R/β-arrestin [2]) | EC50 (human D2R/β-arrestin [3]) | EC50 (human D2R/β-arrestin [4]) | SMILES
1 | 1000 to 10000 nM | 1000 to 10000 nM | > 30000 nM | > 30000 nM | O=C(NC(c1ccc(F)cc1)c1ccccn1)C1CCN(CCOc2ccc3ncsc3c2)CC1 (stereo not drawn) [Compound 55, 1-(2-(benzo[d]thiazol-6-yloxy)ethyl)-N-((4-fluorophenyl)(pyridin-2-yl)methyl)piperidine-4-carboxamide]
2 | 100 to 1000 nM | 100 to 1000 nM | > 30000 nM | > 30000 nM | O=C(NC(c1ccc(F)cc1)c1ccccn1)C1CCN(CCOc2c(F)cccc2F)CC1 (stereo not drawn) [Compound 56, 1-(2-(2,6-difluorophenoxy)ethyl)-N-((4-fluorophenyl)(pyridin-2-yl)methyl) piperidine-4-carboxamide]
3 | 1000 to 10000 nM | > 30000 nM | 100 to 1000 nM | > 30000 nM | O=C(NC(c1ccc(Cl)cc1)c1ccccn1)C1CCN(CCOc2ccc3ncsc3c2)CC1 (stereo not drawn) [Compound 19, 1-(2-(Benzo[d]thiazol-6-yloxy)ethyl)-N-((4-chlorophenyl)(pyridin-2-yl)methyl) piperidine-4-carboxamide]
4 | 1000 to 10000 nM | 100 to 1000 nM | 100 to 1000 nM | > 30000 nM | CC(C1CCN(CCOc2ccccc2)CC1)N(C)C(c1ccc(Cl)cc1)c1ccccn1 (single isomer, unassigned) [Compound 97a, N-((4-chlorophenyl)(pyridin-2-yl)methyl)-N-methyl-1-(1-(2-phenoxyethyl)piperidin-4-yl)ethan-1-amine]
5 | 1000 to 10000 nM | > 30000 nM | 1000 to 10000 nM | > 30000 nM | O=C(NC(c1ccccc1F)c1ccccc1F)C1CCN(CCOc2ccccc2)CC1 [Compound 48, N-(bis(2-fluorophenyl)methyl)-1-(2-phenoxyethyl)piperidine-4-carboxamide]
6 | 1000 to 10000 nM | > 30000 nM | 1000 to 10000 nM | > 30000 nM | CN(CC1CCN(CCOc2ccccc2)CC1)C(c1ccc(F)cc1)c1ccccn1 (single isomer, unassigned) [Compound 74a, 1-(4-fluorophenyl)-N-methyl-N-((1-(2-phenoxyethyl)piperidin-4-yl)methyl)-1-(pyridin-2-yl)methanamine]
7 | < 100 nM | < 100 nM | 1000 to 10000 nM | > 30000 nM | Fc1ccccc1OCCN1CCC(CN(CC(F)(F)F)C(c2ccc(Cl)cc2)c2ccccn2)CC1 (stereo not drawn) [Compound 136, N-((4-chlorophenyl)(pyridin-2-yl)methyl)-2,2,2-trifluoro-N-((1-(2-(2-fluorophenoxy)ethyl)piperidin-4-yl)methyl)ethan-1-amine]
8 | 100 to 1000 nM | 100 to 1000 nM | < 100 nM | > 30000 nM | COc1cccc(C(c2ccccn2)N(CC2CCN(CCOc3ccccc3F)CC2)C(C)C)c1 (stereo not drawn) [Compound 134, N-((1-(2-(2-fluorophenoxy)ethyl)piperidin-4-yl)methyl)-N-((3-methoxyphenyl)(pyridin-2-yl)methyl)propan-2-amine]
9 | 1000 to 10000 nM | > 30000 nM | < 100 nM | > 30000 nM | Oc1c(CN2CCN(c3ccccn3)CC2)cc(Cl)c2cccnc12 [MLS1547, reference compound]
10 | 100 to 1000 nM | 100 to 1000 nM | > 30000 nM | > 30000 nM | Fc1ccccc1OCCN1CCC(CNC(c2ccc(Cl)cc2)c2ccccc2F)CC1 (stereo not drawn) [Compound 87, 1-(4-chlorophenyl)-N-((1-(2-(2-fluorophenoxy)ethyl)piperidin-4-yl)methyl)-1-(2-fluorophenyl)methanamine]
11 | 1000 to 10000 nM | > 30000 nM | 100 to 1000 nM | 1000 to 10000 nM | COc1cccc(C(NC(=O)C2(C)CCN(CCOc3ccccc3)CC2)c2ccccn2)c1 (stereo not drawn) [Compound 143, N-((3-methoxyphenyl)(pyridin-2-yl)methyl)-4-methyl-1-(2-phenoxyethyl)piperidine-4-carboxamide]
12 | < 100 nM | < 100 nM | > 30000 nM | > 30000 nM | FC(F)(F)c1ccccc1OCCN1CCC(CNC(c2ccc(Cl)cc2)c2ccccn2)CC1 (stereo not drawn) [Compound 120, 1-(4-chlorophenyl)-1-(pyridin-2-yl)-N-((1-(2-(2-(trifluoromethyl)phenoxy)ethyl)piperidin-4-yl)methyl)methanamine]
13 | 100 to 1000 nM | 100 to 1000 nM | < 100 nM | > 30000 nM | O=C1CCc2ccc(OCCCCN3CCCN(c4cccc(Cl)c4Cl)CC3)nc2N1 [UNC9975, reference compound]
14 | 10000 to 30000 nM | 1000 to 10000 nM | > 30000 nM | > 30000 nM | COc1cccc(C(NC(=O)C2CCN(CCOc3ccc(F)cc3F)CC2)c2ccccn2)c1 (single isomer, unassigned) [Compound 145a, 1-(2-(2,4-difluorophenoxy)ethyl)-N-((3-methoxyphenyl)(pyridin-2-yl)methyl)piperidine-4-carboxamide]
15 | 1000 to 10000 nM | > 30000 nM | < 100 nM | 1000 to 10000 nM | CN(CC1(C)CCN(CCOc2ccccc2)CC1)C(c1ccc(Cl)cc1)c1ccccn1 (stereo not drawn) [Compound 131, 1-(4-chlorophenyl)-N-methyl-N-((4-methyl-1-(2-phenoxyethyl)piperidin-4-yl)methyl)-1-(pyridin-2-yl)methanamine]
16 | 1000 to 10000 nM | 1000 to 10000 nM | > 30000 nM | > 30000 nM | CN(CC1CCN(CCOc2ccccc2)CC1)C(c1ccc(Cl)cc1)c1ccccn1 (single isomer, unassigned) [Compound 79a, 1-(4-chlorophenyl)-N-methyl-N-((1-(2-phenoxyethyl)piperidin-4-yl)methyl)-1-(pyridin-2-yl)methanamine]
17 | 10000 to 30000 nM | 10000 to 30000 nM | > 30000 nM | > 30000 nM | O=C(NC(c1ccc(Cl)cc1)c1ccccn1)C1CCN(CCOc2ccncc2)CC1 (stereo not drawn) [Compound 142, N-((4-chlorophenyl)(pyridin-2-yl)methyl)-1-(2-(pyridin-4-yloxy)ethyl)piperidine-4-carboxamide]
18 | 1000 to 10000 nM | > 30000 nM | 100 to 1000 nM | > 30000 nM | O=C(NC(c1ccc(Cl)cc1)c1ccncc1F)C1CCN(CCOc2ccccc2)CC1 (stereo not drawn) [Compound 117, N-((4-chlorophenyl)(3-fluoropyridin-4-yl)methyl)-1-(2-phenoxyethyl) piperidine-4-carboxamide]
19 | 1000 to 10000 nM | 100 to 1000 nM | > 30000 nM | > 30000 nM | O=C(NC(c1ccc(F)cc1)c1ccc(F)cc1)C1CCN(CCOc2ccccc2)CC1 [Compound 47, N-(bis(4-fluorophenyl)methyl)-1-(2-phenoxyethyl)piperidine-4-carboxamide]
20 | 1000 to 10000 nM | > 30000 nM | < 100 nM | > 30000 nM | O=C(NC(c1ccccc1)c1ccccn1)C1CCN(CCOc2ccccc2)CC1 (stereo not drawn) [Compound 113, 1-(2-phenoxyethyl)-N-(phenyl(pyridin-2-yl)methyl)piperidine-4-carboxamide]
21 | > 30000 nM | > 30000 nM | < 100 nM | 100 to 1000 nM | Clc1ccc(C(c2ccccn2)N2CC3CCN(CCOc4ccccc4)CC3C2)cc1 (stereo not drawn) [Compound 98, 2-((4-chlorophenyl)(pyridin-2-yl)methyl)-5-(2-phenoxyethyl)octahydro-1H-pyrrolo[3,4-c]pyridine]
22 | 100 to 1000 nM | > 30000 nM | 100 to 1000 nM | > 30000 nM | CC(=O)N(CC1CCN(CCOc2ccccc2)CC1)C(c1ccc(Cl)cc1)c1ccccn1 (stereo not drawn) [Compound 107, N-((4-chlorophenyl)(pyridin-2-yl)methyl)-N-((1-(2-phenoxyethyl)piperidin-4-yl)methyl) acetamide]
23 | < 100 nM | < 100 nM | > 30000 nM | > 30000 nM | COc1cccc(C(NC(=O)C2CCN(CCOc3ccccc3Cl)CC2)c2ccccc2F)c1 (stereo not drawn) [Compound 86, 1-(2-(2-chlorophenoxy)ethyl)-N-((2-fluorophenyl)(3-methoxyphenyl)methyl)piperidine-4-carboxamide]

Row | SMILES | IC50 (human D2R/β-arrestin [1]) | IC50 (human D2R/β-arrestin [2]) | EC50 (human D2R/β-arrestin [3]) | EC50 (human D2R/β-arrestin [4])
24 | CC1(C(=O)NC(c2ccc(F)cc2)c2ccccn2)CCN(CCOc2ccccc2C(F)(F)F)CC1 (stereo not drawn) [Compound 70, N-((4-fluorophenyl)(pyridin-2-yl)methyl)-4-methyl-1-(2-(2-(trifluoromethyl)phenoxy)ethyl) piperidine-4-carboxamide] | 100 to 1000 nM | 100 to 1000 nM | 100 to 1000 nM | > 30000 nM
